From patent publication US11260012B2, “Preserved silk protein fragment compositions and articles manufactured therefrom” (Evolved By Nature, Inc., priority 2015, dated 2022) come the findings set out here.

In series [1] the test system is C. albicans and A. brasiliensis. The series can be described thus: Challenge testing of preservative effect, antifungal (Method A or Method B). Type of series: cell-based. As for the experimental part: Challenge testing of various compositions of the present disclosure to determine preservative effects was performed using the following methods: (1) Method A or (2) Method B. As used herein, a “count” refers to a typical measurement for measuring microbial (i.e., bacterial and fungal) growth.
Method B: • (1) Bacteria were evaluated and were considered to meet a threshold requirement by the following parameters: (i) […] measured no less than 3 log reduction from the initial calculated count after an incubation period of 14 days (i.e., 2 weeks), and (ii) bacteria measured no increase from an incubation period starting at the 14 day count and lasting until the 28 day count (i.e., 2 week incubation period of a 4 week/1 month experiment). • (2) C. albicans was evaluated and considered to meet a threshold requirement by the following parameters: (i) […] measured no less than a 1 log reduction after a 14 day incubation period, and (ii) C. albicans measured no increase from an incubation period starting at the 14 day count and lasting until the to the 28 day count (i.e., 2 week incubation period of a 4 week/1 month experiment). • (3) A. brasiliensis was evaluated and considered to meet a threshold requirement by the following parameters: A. brasiliensis measured no increase from the initial calculated count after an incubation period of 14 days (i.e., a 2 week incubation) and an incubation period of 28 days (i.e., a 4 week/1 month incubation).
Using Method A described above, if the formulation meets the requirements defined under Method A, the microbiological risk is considered to be tolerable (the cosmetic product is protected against microbial proliferation that may present a potential risk for the user) and the cosmetic product is deemed to meet the requirements of this International Standard without additional rationale.
For example, the pump is considered a protective device for risk reduction, i.e., prevention against bacterial and/or fungal growth.

Series [2] in a line: Gel formation with vitamin C derivatives. Type of series: physicochemical. The following applies: for time to gel formation: 100 mg vitamin C derivative in 15 mL of 2% silk solution. As for the experimental part: The Tables in FIGS. 89A-89B summarize embodiments of gels of the present disclosure. Ascorbic acid-2-glucoside was the most successful vitamin C derivative at gel formation with gel being formed in a 2% silk solution in 3 days. […] In all cases 100 mg of vitamin C derivative was mixed in 15 mL of 2% silk solution, and all gels had the same appearance as gels created with ascorbic acid.
Gels were also cast with combinations of two vitamin C options. In each case, at least one of the vitamin C options was known to cause gelation (L-ascorbic acid or ascorbic acid-2-glucoside). All combination gels were able to gel at 1% total vitamin C additive concentration. […] Without wishing to be bound by theory, it appears there is a relationship between vitamin C concentration, silk concentration, and gelation. An increase in vitamin C at a given concentration of silk will result in a longer time to gelation or inhibit gelation. This may be due to the vitamin C molecule physically blocking interaction between silk protein fragments or cross-linking of silk protein. Modification to pH may allow additional concentrations of vitamin C and derivatives thereof to be added.
Ascorbyl tetraisopalmitate is a highly viscous, oil soluble liquid that might need the help of an emulsifier to possible dissolve in aqueous silk solution.

Series [3] can be described thus: HPLC chromatograms of vitamin C degradation, aged silk films vs unstabilized vitamin C. Type of series: physicochemical. The following applies: after 1 hour at ambient conditions without chemical stabilization. The procedure:
FIGS. 36A and 36B show two HPLC chromatograms from samples comprising vitamin C. […] No degradation products were visible. FIG. 59 is a table summarizing the vitamin C concentration in silk protein fragment-films (2% silk films air dried at RT) of the present disclosure. In FIG. 59 processing conditions included 100° C. extraction for 20 min, RT rinse, LiBr in 60° C. oven for 4-6 hours. FIG. 60 is a table summarizing the stability of vitamin C in chemically stabilized solutions. FIGS. 89A-89B are tables summarizing vitamin C stability in SPF gels without chemical stabilizers as compared to chemically stabilized vitamin C in competitive anti-aging skincare products. […] Without wishing to be bound by theory, it appears there is a relationship between vitamin C concentration, silk concentration, and gelation. An increase in vitamin C at a given concentration of silk will result in a longer time to gelation or inhibit gelation. This may be due to the vitamin C molecule physically blocking interaction between silk protein fragments or cross-linking of silk protein.

Where [4] appears, read: in USSSC formulation, concentration of 0.1%.

SMILES strings stand for the structures.

On to `COc1ccc(C(=O)[O-])cc1.[Na+]` [Sodium anisate], for which the antifungal preservative effectiveness result was “effective antifungal preservative” in series [1] (in SER formulation, folded in after gelation, 0.5-1.0%, pH of ˜5.2-5.9, with lemongrass or rosehip oil); “effective antifungal preservative” in series [1] (in SSC formulation, folded in after gelation, 0.1-1.0% and pH of 4.2-5.9); “effective antifungal preservative” in series [1] (in USSSC formulation, folded in after gelation, 0.5-1.0% and pH of 4.2-5.9).
`O=C([O-])c1ccccc1.[Na+]` [Sodium benzoate]: the antifungal preservative effectiveness entry in series [1] (in SER formulation, concentration of 0.1% and pH of 3.28) is listed as “effective antifungal preservative”; in series [1] (in SSC formulation, concentration of 0.1% and pH of 3.7 and 4.2), “effective antifungal preservative”; in series [1] (setting [4]), “effective antifungal preservatives”.
Take `O=C1O[C@H]([C@@H](O)CO)C([O-])=C1OP(=O)([O-])[O-].[Na+].[Na+].[Na+]` [Sodium ascorbyl phosphate from DSM supplier]: in series [2], the “time to gel formation” value came out at 28 days.
The same measure, in the same setting: the value for `O=C1O[C@H]([C@@H](O)CO)C(O)=C1O[C@H]1O[C@H](CO)[C@@H](O)[C@H](O)[C@H]1O` [Ascorbic acid-2-glucoside, Ascorbic Acid-2-Glucoside] was 3 days.
As to `O=C1O[C@H]([C@@H](O)CO)C(O)=C1O` [vitamin C, L-ascorbic acid], the “vitamin C degradation products in HPLC chromatogram” value in series [3] was “degradation products are visible”.
As to `C/C=C/C=C/C(=O)[O-].[K+]` [potassium sorbate], in series [1] (setting [4]), the antifungal preservative effectiveness result was “effective antifungal preservatives”.
With `O=C1O[C@H]([C@@H](O)CO)C([O-])=C1OP(=O)([O-])[O-].[Na+].[Na+].[Na+]` [Sodium ascorbyl phosphate from Aromantic, Sodium Ascorbyl Phosphate], the “time to gel formation” value in series [2] is reported as “failed to create a gel”.
Regarding `CCCCCCCCC(CCCCCC)C(=O)OC[C@H](OC(=O)C(CCCCCC)CCCCCCCC)[C@H]1OC(=O)C(OC(=O)C(CCCCCC)CCCCCCCC)=C1OC(=O)C(CCCCCC)CCCCCCCC` (stereo partly drawn) [Ascorbyl tetraisopalmitate, Ascorbyl Tetraisopalmitate], in series [2], the “ability to dissolve or disperse in aqueous silk solution” value is “unable to dissolve or be dispersed”.
